Results reported in ChEMBL document CHEMBL4354844, “Discovery of Balovaptan, a Vasopressin 1a Receptor Antagonist for the Treatment of Autism Spectrum Disorder” (J Med Chem, 2020).
Activity calls are given as the source filed them. The rule behind the calls is not given here.

How the values were obtained:
[1] = target: Vasopressin V1a receptor (Homo sapiens) (UniProt P37288); assay: Antagonist activity at human Gq5s-coupled V1a receptor expressed in CHO cells assessed as inhibition of vasopressin-induced calcium flux preincubated for 20 mins followed by vasopressin addition and measured for 5 mins by fluo-4-AM dye based FLIPR assay; type: functional, cell-based
[2] = Selectivity ratio of Kb for antagonist activity at human […] receptor to Kb for antagonist activity at human Gq5s-coupled V1a receptor expressed in CHO cells
[3] = Water/octanol distribution coefficient, log D of the compound at pH 7.4 measured after 18 hrs by LC-MS analysis; type: physicochemical
[4] = Selectivity ratio of Kb for antagonist activity at human V2 receptor to Kb for antagonist activity at human Gq5s-coupled V1a receptor expressed in CHO cells
[5] = Intrinsic clearance in rat liver microsomes assessed per mg protein; type: ADME, Microsome; conditions: read-out: CLH
[6] = Intrinsic clearance in human liver microsomes assessed per mg protein; type: ADME, Microsome; conditions: read-out: CLH
Rattus norvegicus [7] = assay: In vivo receptor occupancy at V1a receptor in stress hyperresponsive Fischer F344 rat at 30 mg/kg, iv administered as bolus dose via catheter; type: functional
Rattus norvegicus [8] = assay: Neuroprotective activity in stress hyperresponsive Fischer F344 rat assessed as increase in perfusion in raphe nuclei at 30 mg/kg, iv administered as bolus dose via catheter by ASL-based MRI analysis; type: functional, organism-based
Rattus norvegicus [9] = assay: Neuroprotective activity in iv dosed stress hyperresponsive Fischer F344 rat assessed as improvement in neural activity pattern administered as bolus dose via catheter by ASL-based MRI analysis; type: functional, organism-based
[10] = Half life in iv dosed rat; type: ADME, organism-based; conditions: in vivo
Rattus norvegicus [11] = assay: Neuroprotective activity in stress hyperresponsive Fischer F344 rat assessed as increase in perfusion in substantia nigra at 30 mg/kg, iv administered as bolus dose via catheter by ASL-based MRI analysis; type: functional, organism-based
[12] = Clearance in iv dosed rat relative to hepatic blood flow; type: ADME, organism-based; conditions: in vivo
Rattus norvegicus [13] = assay: Neuroprotective activity in stress hyperresponsive Fischer F344 rat assessed as increase in perfusion in hypothalamus at 30 mg/kg, iv administered as bolus dose via catheter by ASL-based MRI analysis; type: functional, organism-based
Rattus norvegicus [14] = assay: Neuroprotective activity in stress hyperresponsive Fischer F344 rat assessed as increase in perfusion in ventral tegmental area at 30 mg/kg, iv administered as bolus dose via catheter by ASL-based MRI analysis; type: functional, organism-based
[15] = Volume of distribution at steady state in iv dosed rat; type: ADME, organism-based; conditions: in vivo, read-out: Vdss
[16] = target: MDR1 (ABCB1, P-glycoprotein) (Homo sapiens, UniProt P08183); assay: Substrate activity at human MDR1 expressed in LLC-PK1 cells assessed as efflux ratio of permeability at 1 uM measured after 3.5 hrs by lucifer yellow based scintillation counting or HPLC method; type: ADME, cell-based
[17] = Half life in iv dosed human; type: ADME, organism-based; conditions: in vivo

MDR1 (ABCB1, P-glycoprotein), sequence (P08183 whole entry): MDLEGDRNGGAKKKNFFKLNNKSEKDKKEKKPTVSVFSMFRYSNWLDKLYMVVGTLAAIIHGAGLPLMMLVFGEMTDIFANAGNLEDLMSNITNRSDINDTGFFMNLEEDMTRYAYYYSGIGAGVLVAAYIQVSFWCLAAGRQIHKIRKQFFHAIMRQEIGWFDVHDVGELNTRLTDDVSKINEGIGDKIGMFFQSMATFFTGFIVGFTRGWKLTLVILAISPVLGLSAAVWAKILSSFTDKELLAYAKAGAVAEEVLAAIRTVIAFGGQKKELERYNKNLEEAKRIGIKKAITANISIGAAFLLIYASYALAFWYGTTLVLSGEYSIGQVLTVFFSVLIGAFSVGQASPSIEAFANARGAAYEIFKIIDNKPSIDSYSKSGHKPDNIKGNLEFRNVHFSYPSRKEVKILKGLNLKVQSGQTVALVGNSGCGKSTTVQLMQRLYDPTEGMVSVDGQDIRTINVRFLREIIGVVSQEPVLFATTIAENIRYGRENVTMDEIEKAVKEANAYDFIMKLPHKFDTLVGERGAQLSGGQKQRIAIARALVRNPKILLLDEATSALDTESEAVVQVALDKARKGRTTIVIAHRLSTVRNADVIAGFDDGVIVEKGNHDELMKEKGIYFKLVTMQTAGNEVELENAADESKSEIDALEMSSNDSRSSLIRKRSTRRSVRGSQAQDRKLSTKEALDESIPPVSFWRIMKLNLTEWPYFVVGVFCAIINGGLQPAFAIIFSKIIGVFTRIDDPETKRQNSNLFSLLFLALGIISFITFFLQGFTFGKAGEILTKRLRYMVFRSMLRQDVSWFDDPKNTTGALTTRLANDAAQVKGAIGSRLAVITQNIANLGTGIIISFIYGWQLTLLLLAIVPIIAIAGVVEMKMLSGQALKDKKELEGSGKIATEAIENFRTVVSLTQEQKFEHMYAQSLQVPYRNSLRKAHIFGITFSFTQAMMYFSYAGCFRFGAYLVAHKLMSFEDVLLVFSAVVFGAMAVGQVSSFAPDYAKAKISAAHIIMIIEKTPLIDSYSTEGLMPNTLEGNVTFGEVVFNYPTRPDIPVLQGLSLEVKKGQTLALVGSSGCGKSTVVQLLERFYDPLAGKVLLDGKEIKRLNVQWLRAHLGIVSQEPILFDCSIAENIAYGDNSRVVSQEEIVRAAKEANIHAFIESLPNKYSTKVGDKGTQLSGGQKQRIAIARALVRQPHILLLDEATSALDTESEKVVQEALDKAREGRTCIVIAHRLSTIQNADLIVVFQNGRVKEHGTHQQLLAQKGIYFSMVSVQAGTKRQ
Vasopressin V1a receptor (Homo sapiens), sequence (P37288 whole entry, looked up): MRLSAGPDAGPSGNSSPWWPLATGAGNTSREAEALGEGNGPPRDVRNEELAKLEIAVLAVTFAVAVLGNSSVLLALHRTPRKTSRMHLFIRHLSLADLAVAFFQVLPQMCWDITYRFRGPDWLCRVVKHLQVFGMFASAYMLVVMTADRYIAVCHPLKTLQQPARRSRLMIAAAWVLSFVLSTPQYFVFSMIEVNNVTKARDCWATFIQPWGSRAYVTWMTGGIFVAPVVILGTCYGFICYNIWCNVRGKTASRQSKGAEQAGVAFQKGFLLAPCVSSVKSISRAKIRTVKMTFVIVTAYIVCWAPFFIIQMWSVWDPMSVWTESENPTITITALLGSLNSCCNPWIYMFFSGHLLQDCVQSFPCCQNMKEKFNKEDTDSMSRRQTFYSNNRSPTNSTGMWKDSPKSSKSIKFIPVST

CN(C)S(=O)(=O)N1Cc2cc(Cl)ccc2-n2c(nnc2[C@H]2CC[C@H](Oc3ccccc3)CC2)C1
pKb [1]: 9.5 | Selectivity ratio [2]: 190 | logD at 18 h [3]: 4.1 | Selectivity ratio [4]: 445

CN1Cc2cc(Cl)ccc2-n2c(nnc2C2CCN(c3ccccn3)CC2)C1
pKb [1]: 8.9 | Selectivity ratio [2]: 2415 | microsomal CLint [5]: 72 µL/min/mg | Selectivity ratio [4]: 2478 | microsomal CLint [6]: < 10 µL/min/mg

CS(=O)(=O)N1Cc2cc(Cl)ccc2-n2c(nnc2[C@H]2CC[C@H](Oc3ccccc3)CC2)C1
pKb [1]: 9.5 | Selectivity ratio [2]: 191 | logD at 18 h [3]: 3.1 | Selectivity ratio [4]: 573

CC(C)(C)OC(=O)N1Cc2cc(Cl)ccc2-n2c(nnc2[C@H]2CC[C@H](Oc3ccccc3)CC2)C1
pKb [1]: 8.5 | Selectivity ratio [2]: 17 | Selectivity ratio [4]: 19

CN1Cc2cc(Cl)ccc2-n2c(nnc2-c2ccc(-c3ccccc3)cc2)C1
Kb [1]: 12 nM | pKb [1]: 8.6 | Occ (Rattus norvegicus [7]): >90% | Selectivity ratio [2]: 13 | Activity (Rattus norvegicus [8]): Active | Activity (Rattus norvegicus [9]): Dose-dependent effect | Selectivity ratio [4]: 30 | half-life [10]: 1.5 h | Activity (Rattus norvegicus [11]): Active | clearance [12]: 50 to 60% | Activity (Rattus norvegicus [13]): Active | Activity (Rattus norvegicus [14]): Active | Vd [15]: 4 to 6 L/kg

CN1Cc2cc(Cl)ccc2-n2c(nnc2C2CC=C(c3ccccc3)CC2)C1 (racemic)
pKb [1]: 9.3 | Selectivity ratio [2]: 22 | Selectivity ratio [4]: 90

CN1Cc2cc(Cl)ccc2-n2c(nnc2[C@H]2CC[C@H](c3ncccc3F)CC2)C1
logD at 18 h [3]: 2.5 to 3.2

CN1Cc2cc(Cl)ccc2-n2c(nnc2[C@H]2CC[C@]3(CC2)OCc2ccccc23)C1
pKb [1]: 9.1 | Selectivity ratio [2]: 5 | microsomal CLint [5]: 206 µL/min/mg | Selectivity ratio [4]: 19 | microsomal CLint [6]: 10 µL/min/mg

Cc1cc(C)nc([C@H]2CC[C@H](c3nnc4n3-c3ccc(Cl)cc3CN(C)C4)CC2)n1
logD at 18 h [3]: 2

CN1Cc2cc(Cl)ccc2-n2c(nnc2[C@H]2CC[C@H](n3nnc4ccccc43)CC2)C1
efflux ratio at 3.5 h, 1 µM [16]: 10.9 | logD at 18 h [3]: 2.4

CC(=O)N1Cc2cc(Cl)ccc2-n2c(nnc2[C@H]2CC[C@H](Oc3ccccc3)CC2)C1
pKb [1]: 9.5 | Selectivity ratio [2]: 538 | logD at 18 h [3]: 2.9 | Selectivity ratio [4]: 1055

CN1Cc2cc(Cl)ccc2-n2c(nnc2[C@H]2CC[C@H](C3=NOCC3)CC2)C1
efflux ratio at 3.5 h, 1 µM [16]: 6.1 | logD at 18 h [3]: 1

Cc1cccc([C@H]2CC[C@H](c3nnc4n3-c3ccc(Cl)cc3CN(C)C4)CC2)n1
logD at 18 h [3]: 2.5 to 3.2

CN(C)CC(=O)N1Cc2cc(Cl)ccc2-n2c(nnc2[C@H]2CC[C@H](Oc3ccccc3)CC2)C1
pKb [1]: 9.2 | Selectivity ratio [2]: 1025 | logD at 18 h [3]: 2.5 | Selectivity ratio [4]: 963

CN1Cc2cc(Cl)ccc2-n2c(nnc2[C@H]2CC[C@H](Nc3ccccn3)CC2)C1
efflux ratio at 3.5 h, 1 µM [16]: 14

Clc1ccc2c(c1)CNCc1nnc([C@H]3CC[C@H](Oc4ccccc4)CC3)n1-2
pKb [1]: 8.7 | Selectivity ratio [2]: 430 | efflux ratio at 3.5 h, 1 µM [16]: 4.3 | logD at 18 h [3]: 2.7 | Selectivity ratio [4]: 523

CN1Cc2cc(Cl)ccc2-n2c(nnc2N2CCC(O)(c3ccccc3)CC2)C1
pKb [1]: 8.6 | Selectivity ratio [2]: 35 | microsomal CLint [5]: 435 µL/min/mg | Selectivity ratio [4]: 38 | microsomal CLint [6]: < 10 µL/min/mg

CC(C)N1Cc2cc(Cl)ccc2-n2c(nnc2[C@H]2CC[C@H](Oc3ccccc3)CC2)C1
pKb [1]: 9.4 | Selectivity ratio [2]: 224 | Selectivity ratio [4]: 535

CN1Cc2cc(Cl)ccc2-n2c(nnc2[C@H]2CC[C@H](c3ncc(F)cc3F)CC2)C1
logD at 18 h [3]: 2.5 to 3.2

CN1Cc2cc(Cl)ccc2-n2c(nnc2[C@H]2CC[C@H](c3ccc(F)cn3)CC2)C1
logD at 18 h [3]: 2.5 to 3.2

Clc1ccc2c(c1)CN(C1CCC1)Cc1nnc([C@H]3CC[C@H](Oc4ccccc4)CC3)n1-2
pKb [1]: 9.3 | Selectivity ratio [2]: 113 | logD at 18 h [3]: > 3 | Selectivity ratio [4]: 179

CN(C)CCn1cc(C(=O)N2CCC3(CC2)OCc2ccccc23)c2ccc(Cl)cc21 [RO-5028442]
half-life [17]: 8 h

CN1Cc2cc(Cl)ccc2-n2c(nnc2N2CCC3(CC2)OCc2ccccc23)C1
pKb [1]: 9.6 | Selectivity ratio [2]: 127 | microsomal CLint [5]: 718 µL/min/mg | Selectivity ratio [4]: 218 | microsomal CLint [6]: < 10 µL/min/mg

OCCN1Cc2cc(Cl)ccc2-n2c(nnc2[C@H]2CC[C@H](Oc3ccccc3)CC2)C1
pKb [1]: 9.6 | Selectivity ratio [2]: 677 | logD at 18 h [3]: 2.7 | Selectivity ratio [4]: 1091

CN1Cc2cc(Cl)ccc2-n2c(nnc2N2CCC3(CC2)SCc2ccccc23)C1
pKb [1]: 9 | Selectivity ratio [2]: 9 | microsomal CLint [5]: 493 µL/min/mg | Selectivity ratio [4]: 65 | microsomal CLint [6]: 24 µL/min/mg

CN1Cc2cc(Cl)ccc2-n2c(nnc2[C@H]2CC[C@H](Oc3ccccc3)CC2)C1
pKb [1]: 9.5 | Selectivity ratio [2]: 289 | logD at 18 h [3]: 3.2 | Selectivity ratio [4]: 629

CN1Cc2cc(Cl)ccc2-n2c(nnc2[C@H]2CC[C@H](c3cccc(Cl)n3)CC2)C1
logD at 18 h [3]: 2.5 to 3.2

CN1Cc2cc(Cl)ccc2-n2c(nnc2N2CCC3(CC2)COCc2ccccc23)C1
pKb [1]: 9.3 | Selectivity ratio [2]: 14 | microsomal CLint [5]: 949 µL/min/mg | Selectivity ratio [4]: 167 | microsomal CLint [6]: 22 µL/min/mg

Cc1onc([C@H]2CC[C@H](c3nnc4n3-c3ccc(Cl)cc3CN(C)C4)CC2)c1C
efflux ratio at 3.5 h, 1 µM [16]: 3.8

CN1Cc2cc(Cl)ccc2-n2c(nnc2[C@H]2CC[C@H](c3ccccn3)CC2)C1
pKb [1]: 9.6 | Selectivity ratio [2]: 863 | efflux ratio at 3.5 h, 1 µM [16]: 4.4 | Selectivity ratio [4]: 1081

CN1Cc2cc(Cl)ccc2-n2c(nnc2[C@H]2CC[C@@]3(CC2)OCc2ccccc23)C1
pKb [1]: 9.2 | Selectivity ratio [2]: 236 | microsomal CLint [5]: 1000 µL/min/mg | Selectivity ratio [4]: 669 | microsomal CLint [6]: 72 µL/min/mg

CN1Cc2cc(Cl)ccc2-n2c(nnc2[C@H]2CC[C@H](c3ccccc3)CC2)C1
pKb [1]: 9.5 | Selectivity ratio [2]: 4 | Selectivity ratio [4]: 17

Cc1nnc(-c2ccc(-c3ccccc3)cc2)n1-c1ccccc1OCCCCCCN1CCN(C)CC1
pKb [1]: 8.7 | Selectivity ratio [2]: 34 | Selectivity ratio [4]: 67

CN1Cc2cc(Cl)ccc2-n2c(nnc2[C@H]2CC[C@H](c3noc4ccccc43)CC2)C1
efflux ratio at 3.5 h, 1 µM [16]: 1.4 | logD at 18 h [3]: > 3

CN1Cc2cc(Cl)ccc2-n2c(nnc2N2CCC3(CC2)OCCc2ccccc23)C1
pKb [1]: 8.8 | Selectivity ratio [2]: 10 | microsomal CLint [5]: 550 µL/min/mg | Selectivity ratio [4]: 44 | microsomal CLint [6]: < 10 µL/min/mg

CN1Cc2cc(Cl)ccc2-n2c(nnc2[C@H]2CC[C@H](c3ncccc3Cl)CC2)C1
logD at 18 h [3]: 2.5 to 3.2
